Measurements published in patent US20260242359A1, “IRHOM2 INHIBITORS AND USES THEREOF” (NEW YORK SOCIETY FOR THE RELIEF OF THE RUPTURED AND …, priority 2023, published 2026).

Key:
Assay type in all cases: cell-based
[1] = system: TNFα release from LPS-stimulated THP-1 cells (iRhom2/ADAM17-dependent); assay: Primary screen (Example 1b): LPS-stimulated TNFα release from THP-1 cells, HTRF; conditions: Homo sapiens, overnight pre-incubation, LPS 100 ng/mL, 3 h, normalized against 10 μM Batimastat
Procedure: (§1) Two separate screens to identify novel small molecule inhibitors of iRhom2/ADAM17 activity were developed. […] Therefore, the primary screen for small molecule inhibitors of iRhom2/ADAM17 was a screen for inhibitors that blocked the release of TNFα from LPS-stimulated THP-1 human myeloid cells, a process that depends on iRhom2 and ADAM17. Since the release of TNFα from THP-1 cells can be blocked at many stages of the LPS/TLR4/iRhom2/ADAM17 pathway, a secondary screen was performed for another iRhom2/ADAM17 selective substrate, Kit-ligand 2 (KL-2) (Maretzky T et al. (July 2013), “iRhom2 controls the substrate selectivity of stimulated ADAM17-dependent ectodomain shedding”, PNAS 110(28): 11433-11438) in a different human cell type, human embryonic kidney cells (HEK 293).
THP-1 cells were plated in low volume 384 wells (10,000 cells per well in 12.6 μL RPMI medium) together with inhibitors or 10 μM BB94 and incubated over night. The next day, TNFα shedding was initiated by stimulation of THP-1 cells with 100 ng/mL LPS (1.8 μL of an 800 ng/mL LPS stock) for 3 hrs at 37° C. The extent of released TNFα was detected with the corresponding HTRF antibodies labeled with europium cryptate (donor) and d2 (acceptor). The HTRF signal was generated by proximity of europium cryptate and d2. All detection reagents were purchased from Cisbio. TNFα detection was performed according to the manufacturer's protocol (Product Insert for Cisbio TNFα (h) Kit Part #62HTNFAPEG & 62HTNFAPEH; https://www.cisbio.com/media/asset/c/i/cisbio_dd_pi_62htnfapeg-62htnfapeh.pdf, accessed Sep. 28, 2020).
Low volume 384 well plates were pre-coated with small molecule library compounds for a final concentration of 20 μM in a 15 μL reaction, or 0.75 μL of 200 μM stock of BB94 in 5% DMSO (final concentration 0.25%). 12.6 μL of cell suspension [8E5/mL; 10,000 cells/well; culture RPMI medium] and pre-incubated at 37° C., 5% CO2, over night. The next day, 1.8 μL of an 800 ng/mL LPS stock was added [final concentration 100 ng/mL in 15 μL assay] and the cells were incubated at 37° C., 5% CO2, for 3 h. Subsequently, 3 μL of the HTRF-mix [used at 1:3 dilution of cisbio HTRF human TNF] was added and the plates were incubated for an additional 2 hrs at 25° C. After an incubation at room temperature for 2 h, the HTRF readout was performed. Then data evaluation for normalization against the 10 μM Batimastat control (=100% […]) was applied.

[2] = system: PMA-stimulated TGFα release from HEK-293 cells (substrate of iRhom1/ADAM17 and iRhom2/ADAM17); assay: Counter screen (Example 4b): PMA-stimulated TGFα release from HEK-293 cells, AP readout; conditions: Homo sapiens, HEK293, HEK-293 cells expressing TGFα-AP, PMA 100 ng/mL, 2 h
Procedure: A tertiary counterscreen was also performed to monitor the release of TGFα, which is a substrate of iRhom1/ADAM17 and iRhom2/ADAM17, so its release should not be blocked by an iRhom2-selective inhibitor (Maretzky T et al. (July 2013), “iRhom2 controls the substrate selectivity of stimulated ADAM117-dependent ectodomain shedding”, PNAS 110(28): 11433-11438; and Li X et al. (May 2015), “iRhoms 1 and 2 are essential upstream regulators of ADAM17-dependent EGFR signaling”, PNAS 112(19): 6080-6085).
(§2) Expression plasmids for alkaline phosphatase (AP)-fused human KL2 and TGFα had been previously designed and generated through gene synthesis followed by subcloning into the pcDNA3.1(+)/Hygro expression vector. […] Subsequently, DNA amplifications were performed to obtain sufficient amounts of the expression vectors. The quality of DNA and gene sequences were confirmed through restriction digest and Sanger sequencing. In parallel, cell culture of HEK-293 cells was initiated. Master and working cell banks were prepared, scaled up and transfected with the respective constructs by electroporation. During cell culturing, cell density and viability were monitored to ensure optimal conditions for the transfections. After PMA stimulation, AP-coupled KL2 or TGFα were detected by measurement of AP activity in the supernatant.
(§3) After electroporation, cells were further cultured in presence of selection antibiotics, hygromycin B, to generate stably transfected polyclonal cell pools. For both assays, KL2 and TGFα shedding, the respective selected pool turned out to be suitable. Final assay conditions were determined for the selected pools. For all experiments, batimastat (BB94, 10 μM) was used as positive control for full inhibition of KL2 or TGFα shedding.
(§4) The wells of sterile 384-well flat bottom clear plates for TGF-AP assays were coated with 10 μL of 0.1 mg/mL poly-d-lysine for 3-4 hr at 25° C. or overnight at 4° C., then washed 2× with PBS and patted dry. 60 μL of cells (20,000/well) were added to the sterile 384-well plate and incubated in Optimem (with 2% FCS and 1% Pen-strep) overnight at 37° C. (5% CO2). After incubation overnight, 55 μL medium were removed with a BioTek EL406 and 10 μL of prediluted compounds were added to the cells for a final concentration of 20 μM. After incubation for 15 min, 15 μL of PMA (100 ng/mL final conc.) were added. The cells were incubated for 2 h at 37° C. (5% CO2). Then, the plates were centrifuged for 5 min at 1000 rpm and 12 μL of the supernatant was transferred to a fresh 384 well plate. 12 μL of pNPP p-nitrophenyl phosphate (final 1 M pNPP) was added. AP reaction was performed for 1 h at 37° C. The reaction was stopped by addition of 12 μL of NaOH (1 M final conc.), the plates were centrifuged to remove air bubbles and the absorbance of pNP was measured at 405 nm.

[3] = system: PMA-stimulated KL2 release from HEK-293 cells (iRhom2/ADAM17 selective substrate); assay: Secondary screen (Example 3b): PMA-stimulated KL2 release from HEK-293 cells, AP readout; conditions: Homo sapiens, HEK293, HEK-293 cells expressing KL2-AP, PMA 100 ng/mL, 2 h, read-out: Secondary Screen IC50 KitL2
Procedure: as §1, §2, §3
as §4, with “for KL2-AP” for “for TGF-AP”, “cells (40,000/well)” for “cells (20,000/well)”, “and 3” for “and 12”, “well plate and 9 μL of AP Balance Buffer was added per well.” for “well plate.”

CC(=O)Oc1ccccc1Cn1c(C)c(C(=O)NCc2cccs2)sc1=O [Compound 6]
IC50 [1]: 4.86 µM
IC50 [2]: > 40 µM
IC50 [3]: > 40 µM
